Data reported in patent publication US12306178B2 (priority 2022, dated 2025).

Columns and labels:
[1] = system: AFB1-ScFV-AP bifunctional fusion protein; assay type: binding
[2] = system: DON-ScFV-AP bifunctional fusion protein; assay type: binding

| Molecule | IC50 [1] | IC50 [2] | cross-reaction (in words) [2] |
| --- | --- | --- | --- |
| CC1=C[C@H]2O[C@@H]3[C@H](O)[C@@H](O)[C@](C)([C@@]2(CO)[C@H](O)C1=O)[C@]31CO1 [NIV, nivalenol] | >100.4 ppm | 610 ppb | – |
| aflatoxin G2 [AFG2] | 8.1 ppb | – | – |
| CC(=O)OC[C@]12[C@H](O)C(=O)C(C)=C[C@H]1O[C@@H]1[C@H](O)C[C@@]2(C)[C@]12CO2 [15-ADON, 15-acetyldeoxynivalenol] | >100.4 ppm | 64 ppb | – |
| CCCC[C@@H](C)[C@@H](OC(=O)C[C@@H](CC(=O)O)C(=O)O)[C@H](C[C@@H](C)C[C@H](O)CCCCCC[C@H](O)[C@H](C)N)OC(=O)C[C@@H](CC(=O)O)C(=O)O [FB3, fumonisin B3] | >28.6 ppm | – | – |
| CCCC[C@@H](C)[C@@H](OC(=O)C[C@@H](CC(=O)O)C(=O)O)[C@H](C[C@@H](C)CCCCCC[C@@H](O)C[C@H](O)[C@H](C)N)OC(=O)C[C@@H](CC(=O)O)C(=O)O [FB2, fumonisin B2] | >28.6 ppm | – | – |
| T-2 toxin | >100 ppm | >100 ppm | – |
| C[C@@H]1Cc2c(Cl)cc(C(=O)N[C@@H](Cc3ccccc3)C(=O)O)c(O)c2C(=O)O1 [OTA, ochratoxin A] | >1.9 ppm | >1.9 ppm | – |
| CCCC[C@@H](C)[C@@H](OC(=O)C[C@@H](CC(=O)O)C(=O)O)[C@H](C[C@@H](C)C[C@H](O)CCCC[C@@H](O)C[C@H](O)[C@H](C)N)OC(=O)C[C@@H](CC(=O)O)C(=O)O [FB1, fumonisin B1] | >28.6 ppm | – | – |
| CC1=C[C@H]2O[C@@H]3[C@H](O[C@@H]4O[C@H](CO)[C@@H](O)[C@H](O)[C@H]4O)C[C@](C)([C@@]2(CO)[C@H](O)C1=O)[C@]31CO1 [DON-3G, deoxynivalenol-3-glucoside] | >50 ppm | – | – |
| aflatoxin B1 [AFB1] | 0.5 ppb | >2 ppm | – |
| aflatoxin G1 [AFG1] | 2.1 ppb | – | – |
| C[C@H]1CCCC(=O)CCC/C=C/c2cc(O)cc(O)c2C(=O)O1 [ZEN, zearalenone] | >20 ppm | >20 ppm | – |
| CC1=C[C@H]2O[C@@H]3[C@H](O)C[C@](C)([C@@]2(CO)[C@H](O)C1=O)[C@]31CO1 [DON, Deoxynivalenol] | >10 ppm | 2.4 ppb | – |
| aflatoxin B2 [AFB2] | 1.9 ppb | – | – |
| CC(=O)O[C@@H]1C[C@]2(C)[C@@]3(CO)[C@H](O)C(=O)C(C)=C[C@H]3O[C@H]1[C@@]21CO1 [3-ADON, 3-acetyldeoxynivalenol] | >100.1 ppm | 2.3 ppb | obvious cross-reaction |
